Laboratory results from PMC4723269 (Archives of biochemistry and biophysics, 2015).

Biological target: T1, Mtm1p (YGR257cp) (Saccharomyces cerevisiae, UniProt P53320)
T1 sequence (P53320 1-366): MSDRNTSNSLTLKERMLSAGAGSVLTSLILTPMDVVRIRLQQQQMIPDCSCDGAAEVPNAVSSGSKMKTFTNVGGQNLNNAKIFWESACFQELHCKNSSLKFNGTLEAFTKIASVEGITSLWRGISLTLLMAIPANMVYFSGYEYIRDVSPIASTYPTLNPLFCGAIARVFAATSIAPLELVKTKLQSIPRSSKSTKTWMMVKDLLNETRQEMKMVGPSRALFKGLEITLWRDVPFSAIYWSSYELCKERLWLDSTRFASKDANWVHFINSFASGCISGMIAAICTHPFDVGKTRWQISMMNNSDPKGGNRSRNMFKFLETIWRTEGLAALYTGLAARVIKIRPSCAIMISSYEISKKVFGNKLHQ
Assay: stoichiometric tryptophan fluorescence quenching titration
Type: binding

Kd: 1900 ± 300 nM
SMILES: Cc1ncc(COP(=O)(O)O)c(C=O)c1O [PLP, pyridoxal 5′-phosphate]
